Some test systems named below: CAKI-1; DU-145; EKVX; HOP-62; HOP-92; LOX IMVI; M14; MDA-N; NCI-H23; NCI-H460; NCI-H522; OVCAR-3; SF-295; SN12C; SNB-19; SR; SW-620; U-251; UACC-257; HL-60.
Common to all, as to experiment: NCI-60 cell line screen, 48 h

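Growth conditions: 96-well plates. Treatment: test compound, 48 hours, 5 concentrations. Analysis: linear interpolation between bracketing concentrations; unreached endpoints set to highest concentration. GI50 marks 50% less growth.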 Activity calls are given as the source filed them. Rule as the data show it: active = GI50 up to about 1.1 µM and inactive = higher.

For the molecule `COc1ccc(C(=O)/C=C2\c3ccccc3C(=O)N2C)cc1`, the GI50 with CAKI-1 was 36.4 µM (inactive); in the assay with DU-145, > 100 µM (inactive); in the assay on EKVX it was 26.8 µM (inactive); with HOP-62 it was 60.4 µM (inactive); with HOP-92, 24.5 µM (inactive); in the assay with LOX IMVI, 46.8 µM (inactive). For the same molecule, the GI50 in the assay with M14 was 48.6 µM (inactive); in the assay with MDA-N it was 41.4 µM (inactive); with NCI-H23, 55.3 µM (inactive); with NCI-H460, 36.1 µM (inactive); with NCI-H522 it was 31.9 µM (inactive); with OVCAR-3 it was 98.2 µM (inactive). Moreover, the GI50 is 71 µM (inactive) in the assay with SF-295; 58.5 µM (inactive) in the assay with SN12C; > 100 µM (inactive) in the assay on SNB-19; 33.5 µM (inactive) in the assay on SR; > 100 µM (inactive) in the assay with SW-620; 74.8 µM (inactive) in the assay on U-251. The GI50 in the assay with UACC-257 is 31.3 µM (inactive).
Regarding `COC(=O)[C@@H]1C[C@H]2[C@H](c3ccccc3Br)[C@@H](OC(C)=O)[C@@H](OCc3ccccc3)ON2O1`, the GI50 in the assay on CAKI-1, with DU-145, in the assay on EKVX, in the assay with HOP-62, with LOX IMVI and in the assay with M14 was > 100 µM (inactive) throughout. The GI50 in the assay with MDA-N is > 100 µM (inactive); in the assay with NCI-H23, > 100 µM (inactive); with NCI-H460, 92.3 µM (inactive); with OVCAR-3, 19.6 µM (inactive); with SF-295, > 100 µM (inactive); in the assay with SN12C, > 100 µM (inactive). Besides, the GI50 in the assay with SNB-19, with SR, with SW-620, in the assay with U-251 and in the assay with UACC-257 was > 100 µM (inactive) throughout.
For the molecule `CN1CN(c2ccccc2)C2(CCN(C3Nc4ccccc4O3)CC2)C1=O` (stereo unspecified), the GI50 was 25.5 µM (inactive) with CAKI-1; 22.7 µM (inactive) in the assay on DU-145; 12.5 µM (inactive) with HL-60; 17 µM (inactive) in the assay with HOP-62; 13.6 µM (inactive) with LOX IMVI; 18.5 µM (inactive) in the assay on M14. Besides, the GI50 was 17.9 µM (inactive) in the assay with MDA-N; 21.2 µM (inactive) in the assay with NCI-H23; 17.7 µM (inactive) in the assay with NCI-H460; 17.5 µM (inactive) in the assay on NCI-H522; 17.2 µM (inactive) in the assay on OVCAR-3; 16.6 µM (inactive) with SF-295. Besides, the GI50 in the assay on SN12C is 19.2 µM (inactive); with SNB-19 it was 23.7 µM (inactive); with SR it was 36.9 µM (inactive); in the assay on SW-620, 33.7 µM (inactive); in the assay with U-251, 18.2 µM (inactive); in the assay on UACC-257, 16.7 µM (inactive).
`Cn1c(=O)c2[nH]c(/N=N\n3ccc4ccccc43)nc2n(C)c1=O`: the GI50 with CAKI-1, with DU-145, in the assay with EKVX, with HL-60, in the assay on HOP-62 and with LOX IMVI was > 100 µM (inactive) each time. The GI50 in the assay on M14, in the assay on MDA-N, with NCI-H23, in the assay with NCI-H460, in the assay with NCI-H522 and in the assay with OVCAR-3 was > 100 µM (inactive) each time. For the same molecule, the GI50 in the assay on SF-295, in the assay with SN12C, in the assay on SNB-19, with SR, in the assay on SW-620 and in the assay on U-251 was > 100 µM (inactive) each time. Further, the GI50 with UACC-257 is > 100 µM (inactive).
On to `C[C@]12CC[C@H]3[C@@H](CC=C4C[C@@H](O)CC[C@@]43C)[C@@H]1C/C(=C\c1cccnc1)[C@@H]2O`, for which the GI50 is 13.5 µM (inactive) in the assay on DU-145; 3.97 µM (inactive) in the assay on EKVX; 4.67 µM (inactive) in the assay with HOP-62; 11.9 µM (inactive) in the assay on HOP-92; 1.28 µM (inactive) with LOX IMVI; > 100 µM (inactive) in the assay with M14. Moreover, the GI50 with MDA-N is > 100 µM (inactive); with NCI-H23, 13.1 µM (inactive); in the assay on NCI-H460 it was 31.6 µM (inactive); with NCI-H522 it was 12.6 µM (inactive); with SF-295 it was 2.55 µM (inactive); with SN12C it was 9.44 µM (inactive). Also, the GI50 with SNB-19 was 16 µM (inactive); with SR, 1.57 µM (inactive); in the assay with SW-620, 89.9 µM (inactive); with U-251, 6.27 µM (inactive); with UACC-257, 39.2 µM (inactive).
Consider `COc1ccc(C[C@H]2COC(=O)[C@@H]2Cc2ccccc2)cc1OC`, for which the GI50 in the assay with DU-145, in the assay with EKVX, with HOP-62, in the assay with LOX IMVI, in the assay on MDA-N and with NCI-H23 was > 100 µM (inactive) throughout. Further, the GI50 with NCI-H460, in the assay on OVCAR-3, in the assay on SF-295, in the assay on SN12C, in the assay with SNB-19 and in the assay on SR was > 100 µM (inactive) in each case. The GI50 with SW-620, in the assay on U-251 and in the assay on UACC-257 was > 100 µM (inactive) in each case.
On to `CCc1n[nH]c(=O)n1/N=C/c1ccccc1O`, for which the GI50 in the assay with DU-145, with EKVX, with HOP-62, with HOP-92, in the assay on LOX IMVI and in the assay on M14 was > 100 µM (inactive) in each case. The GI50 in the assay on MDA-N, in the assay with NCI-H23, in the assay on NCI-H522, with OVCAR-3, in the assay on SF-295 and with SN12C was > 100 µM (inactive) each time. In addition, the GI50 in the assay on SNB-19, in the assay with SR, with SW-620, in the assay on U-251 and with UACC-257 was > 100 µM (inactive) throughout.
In the case of `c1ccc2c(c1)Sc1ccccc1N2CCCN1c2ccccc2Sc2ccccc21`, the GI50 was > 100 µM (inactive) with CAKI-1; > 100 µM (inactive) with DU-145; > 100 µM (inactive) in the assay with EKVX; 95.1 µM (inactive) in the assay with HOP-62; > 100 µM (inactive) with HOP-92; > 100 µM (inactive) in the assay on LOX IMVI. For the same molecule, the GI50 in the assay with M14 was 50.6 µM (inactive); in the assay with MDA-N, > 100 µM (inactive); with NCI-H23, > 100 µM (inactive); with NCI-H460, 39.9 µM (inactive); with NCI-H522, > 100 µM (inactive); in the assay on OVCAR-3 it was 63.5 µM (inactive). The GI50 in the assay on SF-295 was > 100 µM (inactive); with SN12C, 91.6 µM (inactive); with SNB-19 it was > 100 µM (inactive); in the assay with SR, > 100 µM (inactive); with SW-620, > 100 µM (inactive); in the assay on U-251, 45.9 µM (inactive). The GI50 in the assay on UACC-257 is > 100 µM (inactive).
For `N#Cc1[nH]c(=O)n(-c2ccccc2)c1N`, the GI50 with DU-145 was > 10 µM (inactive); in the assay on EKVX, > 10 µM (inactive); in the assay with HL-60 it was > 10 µM (inactive); in the assay with HOP-62 it was > 10 µM (inactive); with LOX IMVI it was 0.0995 µM (active); with M14, > 10 µM (inactive). The GI50 is > 10 µM (inactive) in the assay on MDA-N; > 10 µM (inactive) in the assay with NCI-H23; > 10 µM (inactive) in the assay on NCI-H460; > 10 µM (inactive) with OVCAR-3; 0.279 µM (active) with SF-295; > 10 µM (inactive) in the assay with SN12C. Moreover, the GI50 in the assay on SNB-19, in the assay with SR, in the assay with SW-620, with U-251 and with UACC-257 was > 10 µM (inactive) in each case.
Turning to `COc1ccc(C2=NN(C(=O)c3ccccc3)C(O)(c3cc(F)c(Cl)cc3Cl)C2)cc1OC` (stereo unspecified), the GI50 was 27.5 µM (inactive) in the assay with CAKI-1; 39 µM (inactive) in the assay on DU-145; 32.7 µM (inactive) with EKVX; > 100 µM (inactive) in the assay with HL-60; 17.2 µM (inactive) with HOP-62; 21.4 µM (inactive) with HOP-92. Further, the GI50 with LOX IMVI was 97.1 µM (inactive); in the assay on M14 it was 73.6 µM (inactive); in the assay with MDA-N, 57.5 µM (inactive); in the assay with NCI-H23 it was 42.3 µM (inactive); in the assay on NCI-H460, 83.2 µM (inactive); in the assay on NCI-H522, 56.1 µM (inactive). In addition, the GI50 is 20.4 µM (inactive) in the assay with OVCAR-3; 29.5 µM (inactive) in the assay on SF-295; 94.4 µM (inactive) in the assay on SN12C; 36.5 µM (inactive) with SNB-19; > 100 µM (inactive) with SW-620; 32.4 µM (inactive) with U-251. For the same molecule, the GI50 in the assay on UACC-257 was 60.4 µM (inactive).
Turning to `COC(=O)CC(c1cn(S(=O)(=O)c2ccc(C)cc2)c2ccccc12)C1C[C@@H](C(=O)OC)N(C(=O)OC(C)(C)C)C1=O` (stereo partly specified), the GI50 in the assay on CAKI-1 was 31.7 µM (inactive); with DU-145 it was 87.1 µM (inactive); in the assay on EKVX, > 100 µM (inactive); in the assay with HL-60 it was > 100 µM (inactive); in the assay with HOP-62, > 100 µM (inactive); in the assay with LOX IMVI it was 20.8 µM (inactive). Moreover, the GI50 with M14 is > 100 µM (inactive); with MDA-N, 55.8 µM (inactive); with NCI-H23, 66.8 µM (inactive); in the assay on NCI-H460 it was 26.6 µM (inactive); in the assay with NCI-H522 it was 55.3 µM (inactive); in the assay on OVCAR-3 it was 31 µM (inactive). The GI50 in the assay on SF-295 is 20.9 µM (inactive); in the assay with SN12C, 32.1 µM (inactive); in the assay on SNB-19, > 100 µM (inactive); in the assay with SR, 3.08 µM (inactive); in the assay on SW-620, 12.5 µM (inactive); with U-251, 33.9 µM (inactive). Further, in the assay with UACC-257, the GI50 is > 100 µM (inactive).

(Values after ChEMBL document CHEMBL1201862, “PubChem BioAssay data set” (2004).)
